Tests used:
anesthetized rats = assay: Acute cardiovascular and renal effects of an intravenous bolus in anesthetized rats (Example 1); format: in vivo, male Sprague-Dawley rats; settings: 33.5 μmoles/kg intravenous bolus
Experimental: Animals. This study employed male Sprague-Dawley rats (Charles River; Wilmington, Mass.) that were approximately 16 weeks old. The Institutional Animal Care and Use Committee approved all procedures.
The rats were anesthetized with Inactin (90 mg/kg, i.p.) and placed on an isothermal pad, and body temperature was monitored with a rectal probe thermometer and maintained at 37° C. with a heat lamp. […] A PE-50 cannula was inserted into the jugular vein, and an infusion of 0.9% saline at 25 μl/min was initiated. A PE-10 tubing was placed in the left ureter for urine collection. […] The dose was selected based on preliminary experiments with 8-aminoguanosine. […] Each group of rats (n of at least 6) received only one treatment. Ten minutes after the test agents were administered, urine was collected for another 30 minutes (Period 2: […] into the protocol).
Statistics. Absolute values are presented as the mean±SEM. Fold-increases were calculated as follows: Period 3 value÷Period 1 value. Statistical analyses were performed using analysis of variance (ANOVA) followed by Fisher's Least Significant Difference (LSD) test if the overall effects or interactions in the ANOVA were significant. P<0.05 was considered statistically significant.

MCT-induced PH = assay: Monocrotaline (MCT)-induced pulmonary hypertension; format: in vivo, male Sprague Dawley rats; settings: 30 mg/kg/day
Experimental: Because PNPase metabolizes guanosine to guanine, the mechanism by which PNPase activity is associated with PH likely includes guanosine protection against PH. A total of 24 male Sprague Dawley rats were used to determine whether administration of guanosine attenuates the development of PH in animals with MCT-induced PH. Animals were randomly assigned for intraperitoneal (i.p.) injection with either a mixture of 1 ml of 1N HCl neutralized with 1.0 N NaOH and diluted with distillated water (10 ml/kg, Control group; n=8) or MCT (60 mg/kg, […]). The MCT (Sigma, St Louis, Mo.) was dissolved in 1N HCl at 100 mg/ml, which was neutralized with 1 N NaOH and diluted with distillated water to 6 mg/ml. Next, a subset of MCT rats (n=8) were assigned to receive guanosine (30 mg/kg/day). The rats were randomly assigned to the Control, MCT, or MCT+guanosine group.
In this PH model, three weeks after MCT administration, mortality rapidly increases (Ren et al., J Pharmacol Exp Ther., 325:920-926, 2008; Seoane et al., Southern Medical Journal, 94:635-639, 2001). Therefore, animals were monitored for four weeks, and acute measurements of right ventricular pressure and morphometric analyses were performed. Twenty-eight days after administration of MCT, the animals were anesthetized and instrumented for right ventricular peak systolic pressure (RVPSP) measurement. Briefly, a PE-240 polyethylene catheter was inserted into the trachea to facilitate breathing. An angled Milliar Micro-tip pressure transducer catheter SPR-513 (Millar Instruments) was inserted into the right jugular vein and advanced into the right ventricle (RV) for RVPSP measurement. After 30-minutes of stabilization, RVPSP was recorded over 20 minutes. The animals were euthanized by anesthetic overdose, and the heart and lungs were collected for morphometric analyses.

[1] = tested on: RBCs from SCD patients (HbSS); assay: Hypoxia-induced sickling of RBCs from SCD patients; format: cell-based, human; settings: 2 μmol/L; 1.5 hours pre-incubation, then hypoxia for 3 hours
Experimental: In addition to causing PH in SCD patients and HIV-infected patients, the contribution of PNPase to RBC sickling in SCD patients was assessed. Fresh RBCs were obtained from two adult SCD patients (HbSS); the RBCs were diluted in F-10 HAM buffer to a final hematocrit of 4%. Next, glucose was added for a final concentration of 5.5 mmol/L, and the samples were incubated at room air/temperature in 12-well plates. The RBCs were then treated with either vehicle, 8-aminoguanosine (2 μmol/L), inosine (2 μmol/L), or an 8-aminoguanosine and inosine combination. After 1.5 hours, the RBCs were placed in a hypoxic glove box and maintained under hypoxia (5% 02) for 3 hours, while undergoing mild agitation. At the end of incubation, to prevent reoxygenation-derived morphological changes, the RBCs were fixed under hypoxic conditions in the hypoxic glove box. The samples were assayed for percent sickling.

[2] = Period 3 compared with Period 1

## Nc1nc2c(nc(O)n2[C@H]2C[C@H](O)[C@@H](CO)O2)c(=O)[nH]1 [8-hydroxy-2-deoxyguanosine]
Anesthetized rats
  efficacy grouping (diuretic/natriuretic): little or no efficacy

## Nc1nc2[nH]c(O)nc2c(=O)[nH]1 [8-hydroxyguanine, 8-Hydroxyguanine]
Anesthetized rats
  efficacy grouping (diuretic/natriuretic): moderate efficacy
Anesthetized rats; [2]
  sodium excretion increase: 8.6 fold

## Nc1nc2c(nc(O)n2[C@@H]2O[C@H](CO)[C@@H](O)[C@H]2O)c(=O)[nH]1 [8-hydroxyguanosine, 8-Hydroxyguanosine]
Anesthetized rats
  efficacy grouping (diuretic/natriuretic): moderate efficacy
Anesthetized rats; [2]
  sodium excretion increase: 7.1 fold

## Nc1nc2[nH]c([N+](=O)[O-])nc2c(=O)[nH]1 [8-nitroguanine, 8-Nitroguanine]
Anesthetized rats
  efficacy grouping (diuretic/natriuretic): moderate efficacy
Anesthetized rats; [2]
  sodium excretion increase: 7.8 fold

## Nc1nc2c(nc([N+](=O)[O-])n2[C@@H]2O[C@H](CO)[C@@H](O)[C@H]2O)c(=O)[nH]1 [8-nitroguanosine]
Anesthetized rats
  efficacy grouping (diuretic/natriuretic): little or no efficacy

## NC(N)=NC(=O)c1nc(Cl)c(N)nc1N [amiloride, Amiloride, reference compound]
Anesthetized rats
  effect on heart rate (HR): modestly decreased
  effect on mean arterial blood pressure (MABP): modestly decreased
  effect on mesenteric blood flow (MBF): modestly decreased
  effect on renal blood flow (RBF): modestly decreased
Anesthetized rats; Period 3 (85-115 min) compared with Period 1 (0-30 min)
  urine volume increase: 4.5 fold
Anesthetized rats; [2]
  potassium excretion decrease: 96.5%
  sodium excretion increase: 13.6 fold
Anesthetized rats; in words
  effect on glucose excretion: did not change

## Nc1nc2[nH]cnc2c(=O)[nH]1 [guanine, Guanine, reference compound]
Anesthetized rats
  efficacy grouping (diuretic/natriuretic): moderate efficacy
Anesthetized rats; [2]
  sodium excretion increase: 9.4 fold

## Nc1nc2c(ncn2[C@@H]2O[C@H](CO)[C@@H](O)[C@H]2O)c(=O)[nH]1 [guanosine, Guanosine]
MCT-induced PH; 28 days after MCT
  RV dysfunction (RV EDP, contractility index): prevented
  RV hypertrophy (RV mass): attenuated
  inflammatory cell infiltration into the lungs (ED1+ cells): reduced
  pulmonary vascular remodeling: attenuated
MCT-induced PH; 28 days after MCT 60 mg/kg
  pulmonary hypertension (RVPSP): attenuated
Anesthetized rats
  efficacy grouping (diuretic/natriuretic): little or no efficacy

## O=c1[nH]cnc2c1ncn2[C@@H]1O[C@H](CO)[C@@H](O)[C@H]1O [inosine, Inosine]
[1]
  hypoxia-induced sickling of RBCs: significantly reduced

Source: US11103526B2, “Methods for treatment using small molecule potassium-sparing diuretics and natriuretics” (University of Pittsburgh—Of the Commonwealth System of …, priority 2016, dated 2021)
